US20110076236A1, “COMPOSITIONS AND METHODS OF TREATMENT USING MODULATORS OF MOTONEURON DISEASES” (Kinemed, Inc., priority 2008, published 2011)
Entries after “also recorded” stand apart in the source; their conditions may differ.

Columns and labels:
[1] = tested on: MT-mediated fast axonal transport; assay: MT-mediated fast axonal transport of 2H-label neuregulin-1 and chromogranin-B synaptic vesicle cargo (CSF secretion, spinal cord retention); type: in vivo, mouse; settings: 13 weeks SOD1 G93A mice; 3 weeks treatment, 100 mg/kg/d and 200 mg/kg/d
Experimental: After 3 weeks of treatment with MTMA noscapine (100 mg/kg/d and 200 mg/kg/d) an intraperitoneal pulse dose of 30-35 ml/kg ^2H2O CSF was given and CSF as well as spinal cord lumbar region were collected from 13 weeks wild type (WT) and symptomatic SOD1 G93A mice at 24, 48 and 72 h, respectively. CSF secretion rates and neuronal kinetic of retention of ^2H-label neuregulin-1 [NeuR-1] or ^2H-label chromogranin-B [Chr-B] containing synaptic vesicles were measured as described above (FIGS. 23 and 24). […] Neuroprotective actions of agents are evaluated by comparing their ability to normalize the time course, extent or pattern of appearance of labeled secreted synaptic vesicle “cargo” molecules in the body fluid or tissue sampled
As detailed in FIG. 25 (A) transgenic SOD G93A mice (representing an animal model of ALS), are given heavy water (^2H2O), to label secreted molecules in motor neurons (n=30 mice total). […] Protein-derived amino acids were derivatized to pentafluorobenzyl derivatives, and ^2H incorporation in alanine released from neuregulin-1 were measured by GC/MS. […] Protein-derived amino acids are derivatized to pentafluorobenzyl derivatives, and ^2H incorporation from ^2H2O into derivatized-alanine is measured by GC/MS, as described in detail elsewhere [Fanara, P. et al. In vivo measurement of microtubule dynamics using stable isotope labeling with heavy water. […]

[2] = in vivo; cited from earlier work
[3] = tested on: SOD1-G93A TGN mice; assay: Clinical assessment (gait/stride length, onset, end stage) of SOD1-G93A TGN mice treated from presymptomatic stage; type: in vivo, mouse; settings: treatment from 7 weeks; for Mortality: age at death; for Onset of Motor Deficits: age at onset
Experimental: FIG. 6. Noscapine-MK801 combination delays onset of disease and death in SOD1-G93A TGN mice. The one and two-drug treatments were started at an early (i.e., presymptomatic) stage of disease (7 weeks). […] Mice received noscapine intraperitoneally and MK-801 in drinking water.
Female SOD-1 G93A TGN mice were obtained from Jackson laboratory (strain #2726). The controls were matched litter mates. Treatment groups were three per group. Noscapine was injected intraperitoneal in the thigh 3 times/week (0.2 mg/kg i.p.) and MK801 was administered continuously in drinking water (12 mg/kg/d). Gait analysis was done by the method of Wooley et al., Muscle Nerve 2005 32(1):43-50 and Carter et al. J. Neurosci., 19(8):3248-3257, hereby incorporated by reference in their entirety.
For clinical assessment endpoints scoring was selected as follows:
GROUP CLASSIFICATION: Presymptomatic
Clinical signs: Full mobility and no observable difference in behavior from age-matched controls (Gait or stride length analysis).
GROUP CLASSIFICATION: Onset
Clinical signs: Abnormal Gait or stride length analysis and hindlimb weakness: >40% reduction in stride length vs. age-matched littermates.
GROUP CLASSIFICATION: End Stage (euthanization)
Clinical signs: noticeable and complete hind limb paralysis (which in this strain occurs more on one limb than the other) and inability to right themselves in 5 sec time window. This stage starts usually as the mice are failing the gait analysis test and enter the End stage. Therefore, Transgenic SOD1-G93A TGN mice are euthanized at the onset of noticeable and complete hindlimb paralysis and inability to right themselves in 5 sec time window.

SMILES	fast axonal transport of 2H-label neuregulin-1 and chromogranin-B containing synaptic vesicles [1]	blood brain barrier penetration [2]	half-life in CNS tissue (brain and spinal cord) and PNS [2]	Mortality [3] [days]	Onset of Motor Deficits [3] [days]
COc1ccc2c(c1OC)C(=O)O[C@@H]2[C@H]1c2c(cc3c(c2OC)OCO3)CCN1C [Noscapine, noscapine]	normalized MT-mediated fast axonal transport rates; also recorded: improves this delayed fast axonal transport	penetrates the blood brain barrier	long half-life	112 to 119	98 to 105
C[C@]12N[C@H](Cc3ccccc31)c1ccccc12 [MK-801, Dizocilipine]	–	–	–	112 to 119	105 to 112
